{"source": "patent US20260022142A1", "about": "“MACROCYCLIC IMMUNOMODULATORS” (Bristol-Myers Squibb Company, priority 2022, published 2026)", "note": "Bridge positions count the residues as written; N and C are the ends. Square brackets hold non-standard residues; d marks the D form. Peptide text beside a SMILES is read from it. * marks the point of attachment. ξ: configuration not given here. Bip = N[C@@H](Cc1ccc(-c2ccccc2)cc1)C(=O)O; Phe(3-Me) = Cc1cccc(C[C@H](N)C(=O)O)c1; Val(3-OH) = CC(C)(O)[C@H](N)C(=O)O; Cha = N[C@@H](CC1CCCCC1)C(=O)O; Thr(3ξ) = CC(O)[C@H](N)C(=O)O; NMeNle = CCCC[C@H](NC)C(=O)O; 12Ado = NCCCCCCCCCCCC(=O)O; Carboxymethyl = O=C(O)C*; Orn = NCCC[C@H](N)C(=O)O; Aun = NCCCCCCCCCCC(=O)O; Dab = NCC[C@H](N)C(=O)O", "data": [{"biological_target": "T1, PD-1/PD-L1 interaction (PE-labeled human PD-L1-Ig binding to Jurkat cell line over-expressing human PD-1) (Homo sapiens, UniProt Q15116)", "T1 construct": "expressed in transfected cells; host or cells: Jurkat", "T1 sequence (Q15116 25-288)": "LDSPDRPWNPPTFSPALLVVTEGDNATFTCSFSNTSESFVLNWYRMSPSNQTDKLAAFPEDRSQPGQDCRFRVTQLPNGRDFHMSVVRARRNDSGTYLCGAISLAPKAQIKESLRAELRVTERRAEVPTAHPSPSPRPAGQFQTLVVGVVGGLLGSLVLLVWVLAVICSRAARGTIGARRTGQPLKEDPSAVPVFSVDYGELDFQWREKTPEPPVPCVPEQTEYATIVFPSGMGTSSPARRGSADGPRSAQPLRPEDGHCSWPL", "experiment": "Jurkat-PD-1 Cell Binding High-Content Screening Assay (CBA)", "type": "cell-based", "conditions": "Jurkat cell line over-expressing human PD-1; PE-labeled PD-L1-Ig 20 nM final; read-out: Jurkat hPD1-PDL1 IC50", "how_it_was_run": "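Human PD-L1-Ig carrying a covalent PE label on its Ig tag serves as the probe, applied at 20 nM final to compound-treated (2 h, 37° C) Jurkat-hPD-1 cells in medium with 10% fetal calf serum. After one hour, fixation and nuclear staining precede high-content image analysis.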", "units": {"IC50": "µM"}, "values": [{"smiles": "Cc1cccc(C[C@@H]2NC(=O)[C@H](CC(=O)O)NC(=O)[C@H](Cc3ccc(OCC(=O)O)cc3)NC(=O)[C@H](CCN)NC(=O)CSC[C@@H](C(=O)N[C@@H](CCN)C(=O)NCCCCCCCCCCC(=O)O)NC(=O)[C@H](CO)NC(=O)[C@H](Cc3cnc[nH]3)NC(=O)[C@H](CC3CCCCC3)NC(=O)[C@H](CCN)NC(=O)[C@@H](CC(C)C)NC(=O)[C@H](CCCN)NC(=O)[C@H](Cc3ccc(OCC(=O)O)cc3)NC(=O)[C@H](Cc3ccc(-c4ccccc4)cc3)NC(=O)[C@H](Cc3ccc(OCC(=O)O)cc3)NC2=O)c1", "note": "[Compound 3632] ({CH2CO}-[Dab]Y(Carboxymethyl)D[Phe(3-Me)]Y(Carboxymethyl)[Bip]Y(Carboxymethyl)[Orn][dL][Dab][Cha]HSC[Dab][Aun]-OH; thioether N-14)", "IC50": 0.0087}, {"smiles": "Cc1cccc(C[C@@H]2NC(=O)[C@H](CC(=O)O)NC(=O)[C@H](Cc3ccc(OCC(=O)O)cc3)NC(=O)[C@H](CCN)NC(=O)CSC[C@@H](C(=O)N[C@@H](CCN)C(=O)NCCCCCCCCCCC(=O)O)NC(=O)[C@H](Cc3cnc[nH]3)NC(=O)[C@H](C(C)O)NC(=O)[C@H](CC3CCCCC3)NC(=O)[C@H](CCN)NC(=O)[C@@H](CC(C)C)NC(=O)[C@H](CCCN)NC(=O)[C@H](Cc3ccc(OCC(=O)O)cc3)NC(=O)[C@H](Cc3ccc(-c4ccccc4)cc3)NC(=O)[C@H](Cc3ccc(OCC(=O)O)cc3)NC2=O)c1", "note": "(stereo partly drawn) [Compound 3633] ({CH2CO}-[Dab]Y(Carboxymethyl)D[Phe(3-Me)]Y(Carboxymethyl)[Bip]Y(Carboxymethyl)[Orn][dL][Dab][Cha][Thr(3ξ)]HC[Dab][Aun]-OH; thioether N-14)", "IC50": 0.0086}, {"smiles": "Cc1cccc(C[C@@H]2NC(=O)[C@H](CC(=O)O)NC(=O)[C@H](Cc3ccc(OCC(=O)O)cc3)NC(=O)[C@H](CCN)NC(=O)CSC[C@@H](C(=O)N[C@@H](CCN)C(=O)NCCCCCCCCCCC(=O)O)NC(=O)[C@H](CCCN)NC(=O)[C@H](C(C)(C)O)NC(=O)[C@H](CC3CCCCC3)NC(=O)[C@H](CCN)NC(=O)[C@@H](CC(C)C)NC(=O)[C@H](CCCN)NC(=O)[C@H](Cc3ccc(OCC(=O)O)cc3)NC(=O)[C@H](Cc3ccc(-c4ccccc4)cc3)NC(=O)[C@H](Cc3ccc(OCC(=O)O)cc3)NC2=O)c1", "note": "[Compound 3634] ({CH2CO}-[Dab]Y(Carboxymethyl)D[Phe(3-Me)]Y(Carboxymethyl)[Bip]Y(Carboxymethyl)[Orn][dL][Dab][Cha][Val(3-OH)][Orn]C[Dab][Aun]-OH; thioether N-14)", "IC50": 0.0063}, {"smiles": "CCCC[C@H]1C(=O)N[C@@H](Cc2ccc(OCC(=O)O)cc2)C(=O)N[C@@H](CC(=O)O)C(=O)N[C@@H](Cc2cccc(C)c2)C(=O)N[C@@H](Cc2ccc(OCC(=O)O)cc2)C(=O)N[C@@H](Cc2ccc(-c3ccccc3)cc2)C(=O)N[C@@H](Cc2ccc(OCC(=O)O)cc2)C(=O)N[C@@H](CCCN)C(=O)N[C@H](CC(C)C)C(=O)N[C@@H](CCN)C(=O)N[C@@H](CC2CCCCC2)C(=O)N[C@@H](C(C)(C)O)C(=O)N[C@@H](CO)C(=O)N[C@H](C(=O)N[C@@H](CCN)C(=O)NCCCCCCCCCCC(=O)O)CSCC(=O)N1C", "note": "[Compound 3635] ({CH2CO}-[NMeNle]Y(Carboxymethyl)D[Phe(3-Me)]Y(Carboxymethyl)[Bip]Y(Carboxymethyl)[Orn][dL][Dab][Cha][Val(3-OH)]SC[Dab][Aun]-OH; thioether N-14)", "IC50": 0.0349}, {"smiles": "Cc1cccc(C[C@@H]2NC(=O)[C@H](CC(=O)O)NC(=O)[C@H](Cc3ccc(OCC(=O)O)cc3)NC(=O)[C@H](CCN)NC(=O)CSC[C@@H](C(=O)N[C@@H](CCN)C(=O)N[C@@H](CO)C(=O)NCCCCCCCCCCCC(=O)O)NC(=O)[C@H](CCCN)NC(=O)[C@H](C(C)O)NC(=O)[C@H](CC3CCCCC3)NC(=O)[C@H](CCN)NC(=O)[C@@H](CC(C)C)NC(=O)[C@H](CCCN)NC(=O)[C@H](Cc3ccc(OCC(=O)O)cc3)NC(=O)[C@H](Cc3ccc(-c4ccccc4)cc3)NC(=O)[C@H](Cc3ccc(OCC(=O)O)cc3)NC2=O)c1", "note": "(stereo partly drawn) [Compound 3636] ({CH2CO}-[Dab]Y(Carboxymethyl)D[Phe(3-Me)]Y(Carboxymethyl)[Bip]Y(Carboxymethyl)[Orn][dL][Dab][Cha][Thr(3ξ)][Orn]C[Dab]S[12Ado]-OH; thioether N-14)", "IC50": 0.0209}, {"smiles": "CC(=O)NCCCC[C@@H]1NC(=O)[C@H](Cc2ccc(-c3ccccc3)cc2)NC(=O)[C@H](Cc2ccc(O)cc2)NC(=O)[C@H](Cc2cccc(C)c2)NC(=O)[C@H](CC(=O)O)NC(=O)[C@H](Cc2ccc(OCC(=O)O)cc2)NC(=O)[C@H](CCN)NC(=O)CSC[C@@H](C(=O)N[C@@H](CCN)C(=O)N[C@@H](CO)C(=O)NCCCCCCCCCCCC(=O)O)NC(=O)[C@H](CCCCN)NC(=O)[C@H](C(C)O)NC(=O)[C@H](CC2CCCCC2)NC(=O)[C@H](CCN)NC(=O)[C@@H](CC(C)C)NC(=O)[C@H](CCCN)NC1=O", "note": "(stereo partly drawn) [Compound 3637] ({CH2CO}-[Dab]Y(Carboxymethyl)D[Phe(3-Me)]Y[Bip]K(Ac)[Orn][dL][Dab][Cha][Thr(3ξ)]KC[Dab]S[12Ado]-OH; thioether N-14)", "IC50": 0.0291}, {"smiles": "CC(=O)NCCCC[C@@H]1NC(=O)[C@H](Cc2ccc(-c3ccccc3)cc2)NC(=O)[C@H](Cc2ccc(O)cc2)NC(=O)[C@H](Cc2cccc(C)c2)NC(=O)[C@H](CC(=O)O)NC(=O)[C@H](Cc2ccc(OCC(=O)O)cc2)NC(=O)[C@H](CCN)NC(=O)CSC[C@@H](C(=O)N[C@@H](CCCN)C(=O)N[C@@H](CO)C(=O)NCCCCCCCCCCC(=O)O)NC(=O)[C@H](CCC(=O)O)NC(=O)[C@H](C(C)O)NC(=O)[C@H](CC2CCCCC2)NC(=O)[C@H](CCN)NC(=O)[C@@H](CC(C)C)NC(=O)[C@H](CCCN)NC1=O", "note": "(stereo partly drawn) [Compound 3638] ({CH2CO}-[Dab]Y(Carboxymethyl)D[Phe(3-Me)]Y[Bip]K(Ac)[Orn][dL][Dab][Cha][Thr(3ξ)]EC[Orn]S[Aun]-OH; thioether N-14)", "IC50": 0.0709}, {"smiles": "Cc1cccc(C[C@@H]2NC(=O)[C@H](CC(=O)O)NC(=O)[C@H](Cc3ccc(OCC(=O)O)cc3)NC(=O)[C@H](CC(N)=O)NC(=O)CSC[C@@H](C(=O)N[C@@H](CCN)C(=O)NCCCCCCCCCCC(=O)O)NC(=O)[C@H](CO)NC(=O)[C@H](C(C)O)NC(=O)[C@H](CC3CCCCC3)NC(=O)[C@H](CCN)NC(=O)[C@@H](CC(C)C)NC(=O)[C@H](CCCN)NC(=O)[C@H](Cc3ccc(OCC(=O)O)cc3)NC(=O)[C@H](Cc3ccc(-c4ccccc4)cc3)NC(=O)[C@H](Cc3ccc(OCC(=O)O)cc3)NC2=O)c1", "note": "(stereo partly drawn) [Compound 3639] ({CH2CO}-NY(Carboxymethyl)D[Phe(3-Me)]Y(Carboxymethyl)[Bip]Y(Carboxymethyl)[Orn][dL][Dab][Cha][Thr(3ξ)]SC[Dab][Aun]-OH; thioether N-14)", "IC50": 0.0105}, {"smiles": "Cc1cccc(C[C@@H]2NC(=O)[C@H](CC(=O)O)NC(=O)[C@H](Cc3ccc(O)cc3)NC(=O)[C@@H](CCCNC(=N)N)NC(=O)CSC[C@@H](C(=O)N[C@@H](CCN)C(=O)NCCCCCCCCCCC(=O)O)NC(=O)[C@H](CO)NC(=O)[C@H](C(C)(C)O)NC(=O)[C@H](CC3CCCCC3)NC(=O)[C@H](CCN)NC(=O)[C@@H](CC(C)C)NC(=O)[C@H](CCCN)NC(=O)[C@H](Cc3ccc(OCC(=O)O)cc3)NC(=O)[C@H](Cc3ccc(-c4ccccc4)cc3)NC(=O)[C@H](Cc3ccc(OCC(=O)O)cc3)NC2=O)c1", "note": "[Compound 3640] ({CH2CO}-[dR]YD[Phe(3-Me)]Y(Carboxymethyl)[Bip]Y(Carboxymethyl)[Orn][dL][Dab][Cha][Val(3-OH)]SC[Dab][Aun]-OH; thioether N-14)", "IC50": 0.011}, {"smiles": "Cc1cccc(C[C@@H]2NC(=O)[C@H](CC(=O)O)NC(=O)[C@H](Cc3ccc(OCC(=O)O)cc3)NC(=O)[C@H](CCN)NC(=O)CSC[C@@H](C(=O)N[C@@H](CCN)C(=O)NCCCCCCCCCCC(=O)O)NC(=O)[C@H](CO)NC(=O)[C@H](C(C)(C)O)NC(=O)[C@H](CC3CCCCC3)NC(=O)[C@H](Cc3cnc[nH]3)NC(=O)[C@@H](CC(C)C)NC(=O)[C@H](CCCN)NC(=O)[C@H](Cc3ccc(OCC(=O)O)cc3)NC(=O)[C@H](Cc3ccc(-c4ccccc4)cc3)NC(=O)[C@H](Cc3ccc(OCC(=O)O)cc3)NC2=O)c1", "note": "[Compound 3641] ({CH2CO}-[Dab]Y(Carboxymethyl)D[Phe(3-Me)]Y(Carboxymethyl)[Bip]Y(Carboxymethyl)[Orn][dL]H[Cha][Val(3-OH)]SC[Dab][Aun]-OH; thioether N-14)", "IC50": 0.0074}, {"smiles": "Cc1cccc(C[C@@H]2NC(=O)[C@H](CC(=O)O)NC(=O)[C@H](Cc3ccc(OCC(=O)O)cc3)NC(=O)[C@H](CCN)NC(=O)CSC[C@@H](C(=O)N[C@@H](CC(N)=O)C(=O)NCCCCCCCCCCC(=O)O)NC(=O)[C@H](Cc3cnc[nH]3)NC(=O)[C@H](C(C)O)NC(=O)[C@H](CC3CCCCC3)NC(=O)[C@H](CCN)NC(=O)[C@@H](CC(C)C)NC(=O)[C@H](CCCN)NC(=O)[C@H](Cc3ccc(OCC(=O)O)cc3)NC(=O)[C@H](Cc3ccc(-c4ccccc4)cc3)NC(=O)[C@H](Cc3ccc(OCC(=O)O)cc3)NC2=O)c1", "note": "(stereo partly drawn) [Compound 3642] ({CH2CO}-[Dab]Y(Carboxymethyl)D[Phe(3-Me)]Y(Carboxymethyl)[Bip]Y(Carboxymethyl)[Orn][dL][Dab][Cha][Thr(3ξ)]HCN[Aun]-OH; thioether N-14)", "IC50": 0.0068}, {"smiles": "CC(=O)NCCCC[C@@H]1NC(=O)[C@H](Cc2ccc(-c3ccccc3)cc2)NC(=O)[C@H](Cc2ccc(OCC(=O)O)cc2)NC(=O)[C@H](Cc2cccc(C)c2)NC(=O)[C@H](CC(=O)O)NC(=O)[C@H](Cc2ccc(OCC(=O)O)cc2)NC(=O)[C@H](CCN)NC(=O)CSC[C@@H](C(=O)N[C@@H](CCN)C(=O)N[C@@H](CO)C(=O)NCCCCCCCCCCC(=O)O)NC(=O)[C@H](CO)NC(=O)[C@H](C(C)(C)O)NC(=O)[C@H](CC2CCCCC2)NC(=O)[C@H](CCN)NC(=O)[C@@H](CC(C)C)NC(=O)[C@H](CCCN)NC1=O", "note": "[Compound 3644] ({CH2CO}-[Dab]Y(Carboxymethyl)D[Phe(3-Me)]Y(Carboxymethyl)[Bip]K(Ac)[Orn][dL][Dab][Cha][Val(3-OH)]SC[Dab]S[Aun]-OH; thioether N-14)", "IC50": 0.0188}]}]}
